Results from patent US11292773B2, “Small molecule inhibitors of BCL-2-associated death promoter (BAD) phosphorylation” (NATIONAL UNIVERSITY OF SINGAPORE, priority 2017, dated 2022).

Tests used:
[1] = test system: various kinases in MCF7 cells; experiment: Human Phospho-Kinase Antibody Array; type: cell-based; settings: NPB 10 μM, 12 h, vs DMSO
Experimental: (A) Western blot analysis was used to assess the level of BAD Ser99 phosphorylation of pBAD, BAD, pAKT, and AKT in MCF7 cells after an increasing period of treatment with NPB (10 μM). Soluble whole cell extracts were run on an SDS-PAGE and immunoblotted as described in methodology. The sizes of detected protein bands in kDa are shown on the left side. (B) Kinases and phosphorylated substrates were detected using a Western Blot array (Proteome Profiler Human Phospho-Kinase Array Kit. MCF7 cells treated with NPB (10 μM) or DMSO for 12 h at 37° C. before preparation of cell lysate. Mean pixel density was analysed using ImageJ software and is represented below.
To elucidate the possibility that NPB decreased hBAD Ser99 phosphorylation by modulation of kinase activity, we assessed the effects of NPB on various kinases using Human Phospho-Kinase Antibody Array Kit from R&D Systems.

MCF7 cells = experiment: Annexin V and propidium iodide apoptosis assay (FACS); type: cell-based, human; settings: about 24 hours, dose dependent manner
Experimental: Phosphatidylserine exposure and cell death are assessed by FACS analysis using Annexin-V-FLUOS Staining Kit (Life Technologies, Singapore) and PI-stained cells. Briefly, 1×10^5 MCF cells/well (190 μL/well) are seeded in 6-well plates and incubated with different concentrations of NPB for about 24 hours and DMSO treated samples are used as control. Cells are then washed with Annexin V binding buffer (10 mM HEPES/NaOH, pH7.4, 140 mM NaCl, 2.5 mM CaCl2), stained with Annexin V FITC for about 30 minutes at room temperature in the dark, then washed again and re-suspended in Annexin V binding buffer containing PI. Samples are analyzed immediately on a BD FACSAria Cell Sorter (BD Biosciences, San Jose, Calif.).
Loss of membrane integrity and translocation of phosphatidylserine to outer leaflet of plasma membrane are the early events of apoptosis which can be detected using FITC conjugated annexin-V and propidium iodide staining. It is observed that NPB induces apoptosis in MCF7 cells using FITC-annexin V and propidium iodide. On treatment with NPB, increase in both early (PI negative, FITC-Annexin V positive) and late apoptotic cells (PI positive, FITC-Annexin V positive) is observed in a dose dependent manner as shown in FIG. 13A.

[2] = molecular target: T1, hBAD Ser99 phosphorylation (Homo sapiens, UniProt Q92934); experiment: Western blot of BAD Ser99 phosphorylation in MCF7 cells; type: cell-based
T1 construct: endogenous in cells; host or cells: MCF7 (A6); 25 carcinoma cell lines of seven cancer types (A7)
T1 sequence (Q92934 1-168): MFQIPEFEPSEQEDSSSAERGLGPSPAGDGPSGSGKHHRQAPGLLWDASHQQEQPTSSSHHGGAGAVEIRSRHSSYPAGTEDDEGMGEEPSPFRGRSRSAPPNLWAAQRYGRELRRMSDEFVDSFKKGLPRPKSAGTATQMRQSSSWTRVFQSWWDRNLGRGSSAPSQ
Experimental: (A) Sensorgrams obtained by SPR analysis of NPB with the BAD protein subunit. The BAD protein subunit was immobilized onto the surface of a CM5 sensor chip. A solution of NPB at variable concentrations (20-100 μM) was injected to generate result binding responses (RU) recorded as a function of time (sec). The results were analyzed using BIA evaluation 3.1. (B) Western blot (WB) analysis was used to assess the level of Ser99 phosphorylation of BAD in MCF7 cells after treatment with NPB. (Below) Calculated IC50 of NPB from dose-response for BAD phosphorylation (Ser99), BAD and β-ACTIN as in shown above by use of ImageJ software from NIH, USA (http://imagej.nih.gov/ij/). (C) WB analysis was used to assess the level of a multiple proteins involved upstream of BAD in MCF7 cells after treatment with NPB. (D) WB analysis was used to assess the level of a multiple protein involved cell survival and cell proliferation in MCF7 cells after treatment with NPB. For WB analysis, soluble whole cell extracts were run on an SDS-PAGE and immunoblotted as described in methodology. β-ACTIN (ACTB) was used as an input control for cell lysate. The sizes of detected protein bands in kDa are shown on the left side.
Phosphorylation of hBAD at residues Ser-75 (mouse BAD serine residue 112) and Ser-99 (mouse BAD serine residue 136) are crucial in regulating the activity of the BCL-2 family of anti-apoptotic proteins. hBAD phosphorylation either at Ser-75 or Ser99 (or the corresponding residues in mouse bad) results in loss of the ability of hBAD to heterodimerize with BCL-xL or BCL-2 [15]. To further validate the predicted target, we first analyzed the effect of NPB on phosphorylation of hBAD at Ser99 by western blot analysis.

[3] = test system: MCF7, BT474, Caov-3, Ishikawa, AsPC-1 and DLD-1 cells; experiment: NPB exposure with or without siRNA-mediated depletion of BAD (western blot, ApoTox-Glo); type: cell-based, human; settings: 5 μM NPB
Experimental: (A) WB analysis was used to assess the levels of pBAD (Ser99) activity and BAD protein in MCF7, BT474, Caov-3, Ishikawa, AsPC-1, and DLD-1 cells after treatment with 5 μM NPB. Depletion of BAD expression was achieved using transient-transfection of small interfering (si)-RNA directed to the BAD transcript. Soluble whole cell extracts were run on an SDS-PAGE and immunoblotted as described in materials and methods. β-ACTIN was used as input control. Effects of NPB (5 μM) in MCF7, BT474, Caov-3, Ishikawa, AsPC-1, and DLD-1 cells. (B) Cell viability and (C) caspase 3/7 activities were evaluated using the ApoTox-GIo™ Triplex Assay Kit. All assays performed as described in methodology. Statistical significance was assessed by an unpaired two-tailed Student's t-test (P<0.05 was considered as significant) using GraphPad Prism5. The column represents mean of triplicate determinations; bars, ±SD. **P<0.001, *P<0.05. Note RFU, relative fluorescence unit; RLU, relative luminescence unit.
To confirm the functional specificity of NPB directed to the BAD protein, we further examined the effect of NPB exposure after siRNA-mediated depletion of BAD expression in 6 carcinoma cell lines (MCF7, BT474, Caov-3, Ishikawa, AsPC-1 and DLD-1). […] As described above, NPB treatment of the control transfected carcinoma cell lines decreased BAD phosphorylation (Ser99) compared to vehicle-treated cells. Concomitantly, exposure of the same carcinoma cell lines to NPB decreased cell viability and increased caspase 3/7 activity compared to vehicle-exposed cells.

[4] = control transfected carcinoma cell lines, vs vehicle

Compound: O=C(NC1CCCC1)c1cccc(C(c2ccccc2O)N2CCN(c3cccc(Cl)c3Cl)CC2)c1 (stereo not drawn) [NPB, N-cyclopentyl-3-((4-(2,3-dichlorophenyl)piperazin-1-yl)(2-hydroxyphenyl)methyl) benzamide]
- kinase activity or phosphorylated substrates [1]: No significant changes
- early and late apoptotic cells (FITC-Annexin V / PI) (MCF7 cells): increase
- phosphorylation of hBAD Ser99 [2]: dose dependent decrease
- total hBAD protein [2]: without a significant change
- EC50 ([2]; ImageJ, read-out: EC50 for inhibition of BAD Ser99 phosphorylation): 410 ± 210 nM
- cell viability and caspase3/7 activity ([3]; carcinoma cell lines with depleted expression of BAD): did not affect
- BAD phosphorylation (Ser99) [3, 4]: decreased
- caspase 3/7 activity [3, 4]: increased
- cell viability [3, 4]: decreased
